What was measured:
Test in all cases: combination Emax (second highest fraction inhibited in the dose matrix, 72 h); higher = more inhibition; extreme values may be limits of the assay
[1] = test system: SCC-3 (B-Cell Non-Hodgkin's Lymphoma)
How it was run: (§1)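 Bliss excess equals the observed combination effect minus the expected value EA + EB − EA·EB, where EA and EB are the effects of each agent alone. Combination Emax is the second-highest inhibition within the matrix. Inhibition was scaled from CellTiter-Glo 2.0 luminescence, with 0 set by vehicle wells and 1 by blank wells, after 72 hours of two-drug dosing of cells plated in 1536-well plates.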

[2] = test system: ASH-3 (Thyroid Gland Carcinoma)
How it was run: as §1

[3] = test system: VMRC-LCD (Lung Adenocarcinoma)
How it was run: as §1

EW-18 (Ewing's Sarcoma) = test system: EW-18 (Ewing's Sarcoma)
How it was run: as §1

[4] = test system: OVISE (Ovarian Carcinoma)
How it was run: as §1

[5] = test system: HC-1 (Other Blood Carcinomas)
How it was run: as §1

[6] = test system: SCC-9 (Oral Cavity Carcinoma)
How it was run: as §1

U-87-MG (Glioblastoma) = test system: U-87-MG (Glioblastoma)
How it was run: as §1

[7] = test system: HuP-T3 (Pancreatic Carcinoma)
How it was run: as §1

[8] = test system: NCI-H2405 (Lung Adenocarcinoma)
How it was run: as §1

GOTO (Neuroblastoma) = test system: GOTO (Neuroblastoma)
How it was run: as §1

[9] = test system: KINGS-1 (Low Grade Glioma)
How it was run: as §1

[10] = test system: EBC-1 (Squamous Cell Lung Carcinoma)
How it was run: as §1

[11] = test system: JHH-7 (Hepatocellular Carcinoma)
How it was run: as §1

[12] = test system: NCI-H322M (Lung Adenocarcinoma)
How it was run: as §1

[13] = test system: NCI-H2347 (Lung Adenocarcinoma)
How it was run: as §1

A704 (Kidney Carcinoma) = test system: A704 (Kidney Carcinoma)
How it was run: as §1

[14] = test system: PFSK-1 (Other Solid Carcinomas)
How it was run: as §1

[15] = test system: KLE (Endometrial Carcinoma)
How it was run: as §1

BT-20 (Breast Carcinoma) = test system: BT-20 (Breast Carcinoma)
How it was run: as §1

| SMILES | combination Emax [1] | combination Emax [2] | combination Emax [3] | combination Emax (EW-18 (Ewing's Sarcoma)) | combination Emax [4] | combination Emax [5] | combination Emax [6] | combination Emax (U-87-MG (Glioblastoma)) | combination Emax [7] | combination Emax [8] | combination Emax (GOTO (Neuroblastoma)) | combination Emax [9] | combination Emax [10] | combination Emax [11] | combination Emax [12] | combination Emax [13] | combination Emax (A704 (Kidney Carcinoma)) | combination Emax [14] | combination Emax [15] | combination Emax (BT-20 (Breast Carcinoma)) |
| --- | --- | --- | --- | --- | --- | --- | --- | --- | --- | --- | --- | --- | --- | --- | --- | --- | --- | --- | --- | --- |
| NC1(C(=O)N[C@@H](CCO)c2ccc(Cl)cc2)CCN(c2ncnc3[nH]ccc23)CC1 [Capivasertib] + C[C@@H]1COCCN1C2=NC(=NC(=C2)C3(CC3)[S@](=N)(=O)C)C4=C5C=CNC5=NC=C4 [AZD6738] (first compound max 10 µM, 7x7, partner max 10 µM) | 0.938 | 0.697 | 0.566 | 0.811 | 0.694 | 0.749 | 0.412 | 0.714 | 0.645 | 0.477 | 0.948 | 0.425 | 0.601 | 0.39 | 0.81 | 0.327 | 0.524 | 0.699 | 0.59 | 0.771 |
| Cn1cnc2c(F)c(Nc3ccc(Br)cc3Cl)c(C(=O)NOCCO)cc21 [Selumetinib] + C=CCn1c(=O)c2cnc(Nc3ccc(N4CCN(C)CC4)cc3)nc2n1-c1cccc(C(C)(C)O)n1 [AZD1775] (first compound max 10 µM, partner max 1 µM) | 0.896 | 0.367 | 0.702 | 0.526 | 0.593 | 0.941 | 0.518 | 0.252 | 0.629 | 0.395 | 0.928 | 0.361 | 0.923 | 0.229 | 0.861 | 0.468 | 0.488 | 0.659 | 0.539 | 0.695 |
| COc1nnc2ccc(N3CCC(c4ccc(OCCN5CCN(C)C(=O)[C@H]5C)cc4)CC3)nn12 [AZD5153] + Cn1cnc2c(F)c(Nc3ccc(Br)cc3Cl)c(C(=O)NOCCO)cc21 [Selumetinib] (first compound max 1 µM, 7x7, partner max 10 µM) | 0.93 | 0.713 | 0.575 | 0.59 | 0.626 | 0.506 | 0.75 | 0.698 | 0.692 | 0.521 | 0.822 | 0.323 | 1 | 0.512 | 0.726 | 0.6 | 0.855 | 0.664 | 0.631 | 0.302 |
| COc1cccc(OCCCN)c1-c1cc(Nc2cnc(C#N)cn2)n[nH]1 [Prexasertib] + CCc1c2c(nc3ccc(O)cc13)-c1cc3c(c(=O)n1C2)COC(=O)[C@]3(O)CC [SN-38] (first compound max 1 µM, 7x7, partner max 0.3 µM) | 1 | 0.989 | 0.769 | 0.77 | 0.689 | 1 | 0.561 | 0.74 | 0.855 | 0.626 | 0.94 | 0.691 | 0.953 | 0.736 | 0.982 | 0.879 | 0.749 | 0.815 | 0.593 | 0.965 |
| COc1nnc2ccc(N3CCC(c4ccc(OCCN5CCN(C)C(=O)[C@H]5C)cc4)CC3)nn12 [AZD5153] + CCN(CCO)CCCOc1ccc2c(Nc3cc(CC(=O)Nc4cccc(F)c4)[nH]n3)ncnc2c1 [AZD2811] (first compound max 1 µM, 7x7, partner max 1 µM) | 0.9 | 0.78 | 0.816 | 0.768 | 0.589 | 0.572 | 0.428 | 0.603 | 0.597 | 0.367 | 0.858 | 0.193 | 0.764 | 0.361 | 0.507 | 0.385 | 0.497 | 0.574 | 0.674 | 0.185 |
| CC(=O)c1c(C)c2cnc(Nc3ccc(N4CCNCC4)cn3)nc2n(C2CCCC2)c1=O [Palbociclib] + CC1(C)CCC(CN2CCN(c3ccc(C(=O)NS(=O)(=O)c4ccc(NCC5CCOCC5)c([N+](=O)[O-])c4)c(Oc4cnc5[nH]ccc5c4)c3)CC2)=C(c2ccc(Cl)cc2)C1 [Venetoclax] (first compound max 10 µM, 7x7, partner max 1 µM) | 0.378 | 0.283 | 0.0618 | 0.656 | 0.104 | 0.611 | 0.13 | 0.29 | 0.187 | 0.0998 | 0.802 | 0.206 | 0.223 | 0.132 | 0.492 | 0.14 | 0.625 | 0.235 | 0.203 | 0.0933 |
| COc1cc2ncnc(Nc3ccc(F)c(Cl)c3)c2cc1OCCCN1CCOCC1 [Gefitinib] + CC(C)n1c(=O)n(C)c2cnc3cc(F)c(-c4ccc(OCCCN5CCCCC5)nc4)cc3c21 [AZD1390] (first compound max 10 µM, 7x7, partner max 0.3 µM) | 0.348 | 0.146 | 0.0987 | 0.229 | 0.197 | 0.387 | 0.626 | 0.0691 | 0.14 | 0.0242 | 0.257 | 0.113 | 0.0862 | 0.115 | 0.718 | 0.0611 | 0.439 | 0.265 | 0.442 | 0.244 |
| CC1(C)CCC(CN2CCN(c3ccc(C(=O)NS(=O)(=O)c4ccc(NCC5CCOCC5)c([N+](=O)[O-])c4)c(Oc4cnc5[nH]ccc5c4)c3)CC2)=C(c2ccc(Cl)cc2)C1 [Venetoclax] + C=CCn1c(=O)c2cnc(Nc3ccc(N4CCN(C)CC4)cc3)nc2n1-c1cccc(C(C)(C)O)n1 [AZD1775] (first compound max 1 µM, partner max 1 µM) | 0.903 | 0.294 | 0.391 | 0.587 | 0.669 | 1 | 0.294 | 0.265 | 0.399 | 0.169 | 0.921 | 0.567 | 0.248 | 0.349 | 0.862 | 0.291 | 0.463 | 0.72 | 0.51 | 0.672 |
| CC(=O)Nc1cccc(-n2c(=O)n(C3CC3)c(=O)c3c(Nc4ccc(I)cc4F)n(C)c(=O)c(C)c32)c1 [Trametinib] + Cc1nc(-c2cn3c(n2)-c2ccc(-c4cnn(C(C)(C)C(N)=O)c4)cc2OCC3)n(C(C)C)n1 [Taselisib] (first compound max 1 µM, 7x7, partner max 10 µM) | 0.736 | 0.962 | 0.212 | 0.637 | 0.696 | 0.665 | 0.954 | 0.837 | 0.741 | 0.665 | 0.701 | 0.894 | 1 | 0.429 | 0.887 | 0.618 | 0.892 | 0.604 | 0.619 | 1 |
| CC1(C)CCC(CN2CCN(c3ccc(C(=O)NS(=O)(=O)c4ccc(NCC5CCOCC5)c([N+](=O)[O-])c4)c(Oc4cnc5[nH]ccc5c4)c3)CC2)=C(c2ccc(Cl)cc2)C1 [Venetoclax] + Cn1cnc2c(F)c(Nc3ccc(Br)cc3Cl)c(C(=O)NOCCO)cc21 [Selumetinib] (first compound max 1 µM, 7x7, partner max 3 µM) | 0.205 | 0.294 | 0.109 | 0.26 | 0.206 | 0.521 | 0.386 | 0.223 | 0.316 | 0.373 | 0.236 | 0.262 | 0.768 | 0.145 | 0.541 | 0.344 | 0.158 | 0.171 | 0.276 | 0.231 |
| C=CCn1c(=O)c2cnc(Nc3ccc(N4CCN(C)CC4)cc3)nc2n1-c1cccc(C(C)(C)O)n1 [AZD1775] + C1CN(CCC1(C(=O)N[C@@H](CCO)C2=CC=C(C=C2)Cl)N)C3=NC=NC4=C3C=CN4 [Capivasertib] (first compound max 3 µM, partner max 3 µM) | 0.977 | 0.519 | – | 0.859 | 0.651 | 0.982 | 0.638 | 0.467 | 0.655 | 0.572 | 0.712 | 0.473 | 0.7 | 0.727 | 0.768 | 0.477 | 0.438 | 0.893 | 0.619 | 0.69 |
| C[C@@H](c1ccc2nccn2c1)n1nnc2ncc(-c3cnn(C)c3)nc21 [Savolitinib] + CN(CC[C@H](CSC1=CC=CC=C1)NC2=C(C=C(C=C2)S(=O)(=O)NC(=O)C3=CC=C(C=C3)N4CCC(CC4)[C@H](C5=CC=CC=C5C6=CC=C(C=C6)Cl)O)S(=O)(=O)C(F)(F)F)CCO [AZD4320] (first compound max 1 µM, 7x7, partner max 1 µM) | 0.0987 | 0.463 | – | 0.891 | 0.7 | 0.546 | – | 0.259 | 0.203 | 0.271 | 0.495 | – | 1 | – | 0.0979 | 0.413 | 0.449 | 0.329 | 0.216 | 0.418 |
